Literature values in publication PMC7163368 (British Journal of Clinical Pharmacology, 2020).

Conditions: cited from earlier work

Structure (SMILES) | Oral bioavailability | also measured
CC#CCn1c(N2CCC[C@@H](N)C2)nc2c1c(=O)n(Cc1nc(C)c3ccccc3n1)c(=O)n2C [linagliptin] |  | Terminal half‐life (currently available oral gliptines): 105 h
N#C[C@@H]1C[C@@H]2C[C@@H]2N1C(=O)[C@@H](N)C12CC3CC(CC(O)(C3)C1)C2 [saxagliptin] | 67% | 
N[C@@H](CC(=O)N1CCn2c(nnc2C(F)(F)F)C1)Cc1cc(F)c(F)cc1F [sitagliptin] |  | Plasma levels higher in female subjects (female vs male subjects): approximately 25%
N#C[C@@H]1CCCN1C(=O)CNC12CC3CC(CC(O)(C3)C1)C2 [vildagliptin] | 85% | 
